“Also recorded” adds a separate entry of the source. Where no end group is shown, it is not given here.
What was measured:
[1] = tested on: cyclins E1/E2 double knockout MEF; assay: Cell cycle analysis, cyclin E1/E2 double knockout MEF; assay type: cell-based, mouse; conditions: starved cells, serum stimulation 10% FBS, 24 hr (peptide) or 20 hr (CMZ)
Description: (§1) Cell culture conditions The isolation and culture of primary mouse aortic VSMC have was performed according to methods previously described (Afroze T, Yang L L, Wang C, Gros R, Kalair W, Hogue A N, Mungrue I N, Zhu Z, Husain M. Calcineurin-independent regulation of plasma membrane Ca2+ ATPase-4 in the vascular smooth muscle cell cycle. Am J Physiol Cell Physiol. July 2003; 285(1):C88-95). VSMCs were grown in DMEM (GIBCO/BRL, Gaithersburg, Md.) supplemented with 10% FBS (Hyclone, Logan, Utah), 50 ng/mL platelet-derived growth factor (PDGF, Sigma) and 1% penicillin-streptomycin (GIBCO/BRL). For serum starvation, cells were grown to 60% to 70% confluence, washed twice with PBS, and cultured in starvation medium (0.25% FBS-supplemented DMEM) for 72 hours to achieve Go arrest. Progression to G1/S was brought about by stimulation with 10% FBS and 50 ng/mL PDGF for 24 hours. Cells and reagents for primary human aortic VSMC culture were purchased from Cascade Biologics. Human VSMC(C-007-5C) were grown in Medium 231 with Smooth Muscle Growth Supplement (SMGS) S-007-25 and 1% penicillin-streptomycin (GIBCO/BRL). […]
Flow cytometric analysis. […] Cells were counted in a flow cytometer (FACScan, BD Biosciences), and G0/G1, S, and G2/M cell percentages were calculated with Cell Quest software (BD Biosciences).

[2] = tested on: primary human aortic VSMC; assay: 3H-thymidine incorporation assay, human aortic VSMC; assay type: cell-based; conditions: 10 and 100 μM for 1.0 h, 72 h after treatment; listed as TAT-CBS
Description: as §1, with “Biologics.” for “Biologics. Human VSMC(C-007-5C) were grown in Medium 231 with Smooth Muscle Growth Supplement (SMGS) S-007-25 and 1% penicillin-streptomycin (GIBCO/BRL).”
(§2) ^3H-thymidine incorporation proliferation assay. […] Cells were grown at 37° C. and analyzed at 24, 48 and 72 h after ^3H-thymidine exposure. […] Solubilized contents of wells were removed and added to 2.5 ml of scintillation fluid (ReadySafe™ Cocktail, Beckman Coulter, Product No. 141349). Radioactivity was measured in a scintillation counter (Beckman Coulter, LS 6500).

[3] = tested on: A549 (human lung cancer cell); assay: MTT proliferation assay, A549; assay type: cell-based; conditions: 100 μM, MTT after 2 days
Description: (§3) Cell culture conditions The isolation and culture of primary mouse aortic VSMC have was performed according to methods previously described (Afroze T, Yang L L, Wang C, Gros R, Kalair W, Hogue A N, Mungrue I N, Zhu Z, Husain M. Calcineurin-independent regulation of plasma membrane Ca2+ ATPase-4 in the vascular smooth muscle cell cycle. Am J Physiol Cell Physiol. July 2003; 285(1):C88-95). VSMCs were grown in DMEM (GIBCO/BRL, Gaithersburg, Md.) supplemented with 10% FBS (Hyclone, Logan, Utah), 50 ng/mL platelet-derived growth factor (PDGF, Sigma) and 1% penicillin-streptomycin (GIBCO/BRL). For serum starvation, cells were grown to 60% to 70% confluence, washed twice with PBS, and cultured in starvation medium (0.25% FBS-supplemented DMEM) for 72 hours to achieve Go arrest. Progression to G1/S was brought about by stimulation with 10% FBS and 50 ng/mL PDGF for 24 hours. Cells and reagents for primary human aortic VSMC culture were purchased from Cascade Biologics. Human VSMC(C-007-5C) were grown in Medium 231 with Smooth Muscle Growth Supplement (SMGS) S-007-25 and 1% penicillin-streptomycin (GIBCO/BRL). Cyclin E1/E2 double knockout mouse embryonic fibroblasts (MEF) were kindly provided by Dr. P. Sicinski (Harvard Medical School), and maintained in DMEM with 10% FBS (Hyclone) and 1% penicillin-streptomycin (GIBCO/BRL). Go arrest of MEF was achieved by starvation for 48 h in medium lacking FBS. Mouse embryonic fibroblasts (MEF) were maintained for normal culture in 10% FBS-supplemented DMEM. For the starvation of MEF, cells were cultured in starvation medium without FBS for 48 hours to achieve Go arrest. HeLa (human cervical cancer cell), Saos-2 (human osteosarcoma cell) and A549 (human lung cancer cell) were cultured in 10% FBS-supplemented DMEM.
(§4) MTT colorimetric survival assay. Active mitochondria of living cells can cleave MTT to produce formazan, the amount of which is directly proportional to the number of living cells. Cell survival was assessed (Denizot, 1986). Cells in 96-well plate were washed two times with PBS followed by 4 hr of incubation at 37° C. with 1 mg/ml of MTT (in phenol red free DMEM supplemented with 2 mM of L-glutamine & 1 mM of sodium pyruvate) in a reaction volume of 100 μl. After removing MTT solution, DMSO was added to dissolve formazan crystals. Plate was shaken for 5 min at 55° C. for complete dissolve. Dye absorbance in viable cells was measured at 570 nm with 630 nm as a reference wavelength. All experiments were repeated at least 3 times, and each experimental condition was repeated in at least quadruplicate wells in each experiment.

[4] = tested on: MEF; assay: 3H-thymidine incorporation assay, MEF; assay type: cell-based, mouse; conditions: 10 and 100 μM for 1.0 h, 48 h after treatment; listed as TAT-CBS
Description: as §1, with “Biologics.” for “Biologics. Human VSMC(C-007-5C) were grown in Medium 231 with Smooth Muscle Growth Supplement (SMGS) S-007-25 and 1% penicillin-streptomycin (GIBCO/BRL).”
as §2

[5] = tested on: HeLa (human cervical cancer cell); assay: MTT proliferation assay, HeLa; assay type: cell-based; conditions: 100 μM, MTT after 2 days
Description: as §3, §4

[6] = tested on: primary mouse aortic SMC; assay type: cell-based
Description: as §3, §4
Nucleofection. For peptides delivery via Nucleofector technology, 1×10^6 cells were harvested, resuspended in 100 μl of Nucleofector solution (for VSMC: Cat. No. VPI-1004; for MEF: Cat. No.: VPD-1005, both provided by Amaxa GmBH, Köln, Germany) and mixed with 100 nmole (in 10 μl) of each peptide. The cell solution was transferred into a kit-provided cuvette and positioned into a Nucleofector device. Subsequently, the transfection was performed with a single pulse using the preprogrammed nucleofection program (A-33 for VSMC; T-20 for MEF) according to the manufacturer's recommendation. Following nucleofection, the cells were transferred into 96-well plate (2K or 5K cells per well for MTT assay) or T25 culture flasks (for FACS analysis) containing pre-warmed stem cell medium using kit-provided plastic pipettes to prevent cell damage and the cells were cultured at 37° C. in 5% CO2.

[7] = tested on: Saos-2 (human osteosarcoma); assay: MTT proliferation assay, Saos-2; assay type: cell-based; conditions: 100 μM, MTT after 2 days
Description: as §3, §4

[8] = tested on: Cyclin E1/E2 KO MEF; assay: 3H-thymidine incorporation assay, Cyclin E1/E2 KO MEF; assay type: cell-based, mouse; conditions: 10 and 100 μM for 1.0 h, 48 h after treatment; listed as TAT-CBS
Description: as §1, with “Biologics.” for “Biologics. Human VSMC(C-007-5C) were grown in Medium 231 with Smooth Muscle Growth Supplement (SMGS) S-007-25 and 1% penicillin-streptomycin (GIBCO/BRL).”
as §2

Row | Compound | cell cycle progression into S phase, cyclins E1/E2 double knockout MEF [1] | 3H-thymidine incorporation (S-phase entry), human aortic VSMC [2] | proliferation of A549 cells (MTT) [3] | 3H-thymidine incorporation (S-phase entry), MEF [4] | proliferation of HeLa cells (MTT) [5] | IC50 [6] | maximum level of inhibition of VSMC proliferation [6] | proliferation of Saos-2 cells (MTT) [7] | 3H-thymidine incorporation (S-phase entry), Cyclin E1/E2 KO MEF [8]
1 | Clc1ccc(C(c2ccc(Cl)cc2)n2cc[n+](CC(OCc3ccc(Cl)cc3Cl)c3ccc(Cl)cc3Cl)c2)cc1 (stereo not drawn) [calmidazolium] | did inhibit | – | – | – | – | – | – | – | –
2 | RRRQRRKKRGGGAEFSARSRKRKANVTVFLQD [TAT-SEQ ID NO:2] | – | dose-dependent inhibitory effect; also recorded: inhibited; also recorded: dose-dependent, anti-proliferative effect | inhibited | observed; also recorded: dose-dependent, anti-proliferative effect | inhibited | 8.89 ± 1.24 µM | 70% | inhibited | not and not able to produce an anti-proliferative effect
